Measurements from patent US20200368198A1, “METHODS FOR INCREASING FERTILITY” (NEWSOUTH INNOVATIONS PTY LIMITED, priority 2017, published 2020).
“And” between values parts separate entries of the source, which are not always exact repeats. Equal values may be shown once. “Also recorded” adds a separate entry of the source.

How the values were obtained:
C57BL6 female mice = assay: Cumulus oocyte complex yield after PMSG, cisplatin with or without NMN; type: in vivo; conditions: per mouse, single dose cisplatin 5 mg/kg i.p. and/or NMN 2 g/L drinking water, two months later
Experimental: (§1) To assess oocyte yield, and mice were hormonally stimulated to superovulated by intraperitoneal injection with 7.5 IU/mL of Pregnant Mare's Serum Gonadotropin (PMSG) (Folligon; Intervet, Boxmeer, Holland) to stimulate follicular growth. After 44-46 hours, ovaries were collected in HEPES-buffered minimum essential medium (aMEM; Gibco Life Technologies, Grand Island, N.Y.) supplemented with 50 µM of 3-isobuty-1-methylxanthine (IBMX) (Sigma aldrich, NSW, AU) (M2 medium) to maintain meitotic arrest at germinal vesicle stage. Cumulus oocyte complexes (COCs) were isolated from preovulatory follicles using a 27-gauge needle and collected using flame-pulled borosilicate Pasteur pipettes in M2 medium supplemented with 3 mg/ml bovine serum albumin (BSA; Sigma Aldrich, St. Louis, Mo.) and 100 μM IBMX (Sigma Aldrich). Cumulus oocyte complexes (COCs) were mechanically denuded of cumulus cells by pipetting, and the denuded oocytes were transferred to another dish containing a drop of fresh M2-medium plus IBMX on heat block with 37° C. with lid to protect oocytes from light. […]

oocytes [1] = assay: Meiotic progression (GVBD, PBE) of harvested oocytes, cisplatin with or without NMN; type: in vivo, mice; conditions: cisplatin and/or NMN
Experimental: Once harvested from ovaries, oocytes were stored in IBMX media to prevent progression into meiosis. Once released from IBMX, meiotic progression was assessed by the proportions of oocytes achieving germinal vesicle breakdown (GVBD) for meiosis I, and polar body extrusion (PBE) for meiosis II, with results shown in FIGS. 7 and 8 and Tables 2 and 3.
Again, as in Example 2 above, the oocytes which were harvested from these studies were allowed to progress down meiosis, in order to assess meiotic progression rates (FIGS. 16 and 17 and Table 7 and 8).

C57BL6 females = assay: Reversal design: pups born after chemotherapy followed by NMN; type: in vivo, mice; conditions: cisplatin 5 mg/kg i.p., NMN delivered well after chemotherapy; 6 mating rounds
From the text: In Examples 2-4, it was shown that co-treatment with NMN during chemotherapy treatment could protect against infertility. Next, we decided to investigate whether NMN treatment delivered some time following chemotherapy treatment could actively reverse chemotherapy induced infertility. […] The rationale of this experimental design is to investigate whether NMN has the ability to induce regeneration of the ovary. According to the standard dogma of reproductive biology, mammals are born with a set number of follicles which are slowly released as oocytes over the course of a lifetime, with the ovaries incapable of regenerating new follicles.

[2] = tested on: C57BL6 and SwissTacAusb female mice; assay: Oocyte yield in aged mice treated with NMN; type: in vivo; conditions: 15 month-old mice, NMN drinking water 2 g/L, 4 weeks, versus untreated
Experimental: as §1, with “Aldrich).” for “Aldrich). Cumulus oocyte complexes (COCs) were mechanically denuded of cumulus cells by pipetting, and the denuded oocytes were transferred to another dish containing a drop of fresh M2-medium plus IBMX on heat block with 37° C. with lid to protect oocytes from light.”
Systemic treatment with the NAD^+ precursor nicotinamide mononucleotide (NMN) increases intracellular NAD^+ levels, and we hypothesised that NMN treatment could restore the activity of SIRT2 to stabilise BubR1 and maintain oocyte reserve and competence into later ages. […] Animals were super-ovulated, and oocyte yield was assessed. […]

oocytes [3] = assay: Spindle structure staining of oocytes from aged NMN treated mice; type: in vivo
From the text: To determine the impact of NMN on spindle assembly, oocytes from C57BL6 mice were next stained for spindle structure (FIG. 3F).
As with other sirtuins, SIRT2 is critically dependent for its activity on levels of its enzymatic co-factor NAD^+, which naturally declines with old age. We hypothesized that increasing NAD^+ availability during old age could restore SIRT2 activity, and recapitulate the improvements in fertility observed with old age during SIRT2 over-expression. To test this, non-genetically modified C57BL6 female mice were treated with the NAD^+ precursor nicotinamide mononucleotide (NMN), as in the Examples above. Mice were treated at 15 months of age, when mice normally experience ovarian failure (FIG. 34). Three weeks later, oocytes were harvested, and analysed for spindle structure (FIG. 35).

oocytes / blastocysts = assay: IVF of oocytes from 8 month old NMN treated mice: blastocyst formation and inner cell mass; type: in vivo
Experimental: In addition, the length of treatment with NAD raising compounds (e.g. NMN) positively correlates with improved fertility. Eight month old ex-breeder C57BL6 female mice, which are at an age of declining natural fertility, were treated with NMN through addition to drinking water (2 g/L) for 48 hours, 1 week, 2 weeks, and 4 weeks (6 per group). Animals were then treated with PMSG and then hCG to promote oocyte maturation and ovulation. MII stage oocytes were collected from the oviduct, and fertilized in vitro. Oocytes were then cultured into blastocysts for the next 6 days, at which point these blastocysts were subjected to differential staining to assess blastocyst cell number in either the inner cell mass or the trophectoderm. Inner cell mass cell number is accepted as an important predictor of implantation success rates.
This was measured through performing IVF in oocytes obtained from 8 month old C57BL6 ex-breeder female mice, which were assigned to the following 4 groups (6 per group) . . . • Daily oral gavage, saline control, normal drinking water • Daily oral gavage, 10 mg NMN in saline, normal drinking water • No gavage, normal (control) drinking water • No gavage, NMN in drinking water (2 g/L)
These animals were at an age at which fertility normally declines in this species. Animals were maintained on each of the above treatments for 10 days. Animals were then treated with PMSG and then hCG to promote oocyte maturation and ovulation. MII stage oocytes were collected from the oviduct, and fertilized in vitro. Oocytes were then cultured into blastocysts for the next 6 days, and blastocyst formation rates were assessed. Results at days 5 and six are shown in FIGS. 38 and 39, respectively. Blastocyst formation and hatching were assessed as indicators of developmental competence. Blastocyst formation is a clinically relevant outcome: during clinical IVF, blastocyst stage and hatching blastocyst stage embryos are preferentially transferred over earlier stage embryos into a person wishing to obtain a pregnancy.

## NC(=O)c1ccc[n+]([C@@H]2O[C@H](COP(=O)([O-])O)[C@@H](O)[C@H]2O)c1 [NMN, nicotinamide mononucleotide]
C57BL6 female mice
  Numbers of cumulus oocyte complexes released from mice: completely rescued and 16 and 14 and 17 and 12 and 13 and 11
Oocytes [1]; 1 h after release from IBMX
  Proportion of harvested oocytes achieving germinal vesicle breakdown: 45 % of total
Oocytes [1]; 2 h after release from IBMX
  Proportion of harvested oocytes achieving germinal vesicle breakdown: 83 % of total
Oocytes [1]; 14 hr following completion of GVBD
  Proportion of harvested oocytes achieving polar body extrusion: 48 % of total
Oocytes [1]; 16 hr following completion of GVBD
  Proportion of harvested oocytes achieving polar body extrusion: 60 % of total
Oocytes [1]; 20 hr following completion of GVBD
  Proportion of harvested oocytes achieving polar body extrusion: 91 % of total
C57BL6 females
  Number of pups born (cisplatin followed by NMN): complete restoration
[2]
  COC (oocyte) yield in aged females: more than doubled; also recorded: dramatically increased
Oocytes [3]; 15 month old C57BL6 females, NMN 3 weeks
  Spindle structure in oocytes: reverse severe spindle defects
Oocytes [3]; aged C57BL6 females, NMN 2 g/L drinking water, 4 weeks
  Spindle and chromosome arrangement in oocytes: bi-polar, barrel-shaped arrangement with well-aligned chromosomes
Oocytes / blastocysts; 8 month old C57BL6, NMN 2 g/L drinking water versus 10 mg daily gavage, 10 days
  Efficacy on blastocyst formation after IVF: drinking water versus single daily oral gavage: better efficacy
Oocytes / blastocysts; NMN 2 g/L drinking water for 48 hours, 1, 2, 4 weeks
  Efficacy versus length of NMN administration (inner cell mass cell number of blastocysts): time dependent increase in efficacy
Oocytes / blastocysts; oocytes from NMN treated versus untreated mice
  Ability of oocytes to form blastocysts following fertilisation in vitro: enhanced ability to form blastocysts
